Assays:
9-ethylguanine = experiment: Binding to model nucleobase 9-ethylguanine by 1H NMR; conditions: D2O, pH* 7.2 ± 0.1, 310 K
Procedure: Supplementary Table 4: Binding constants for formation of 9-EtG adducts of complexes 1-4 determined by 1H NMR. The experiments were performed in D2O, pH* 7.2 ± 0.1 and 310 K. Equilibrium was reached by the time the first 1H NMR spectrum was recorded (< 10 min). […]
DNA is believed to be the main target for [(bip)Ru(en)Cl]+ (8). Due to the structural similarity of the complexes 1-5 with complex 8, their binding to DNA was […]
Interaction with nucleobases
Initially, model nucleobases, 9-ethylguanine and 9-methyladenine were reacted with complexes 1-4 in D2O, 310 K and pH* 7.2 ± 0.1. The binding of the complexes to 9-EtG or 9-MeA was monitored by 1H-NMR spectroscopy. Peaks for the 9-EtG adducts were observed by the time the first spectrum was recorded (< 5 min after mixing), […]
equilibrium was reached rapidly. The binding constants for formation of 9-EtG adducts determined by NMR were between 60 and 106 mM-1 (Supplementary Table 4). These values are in the same range as that from the ethylenediamine complex [(bip)Ru(en)Cl]+ (K9-EtG= 60.3 mM-1),2 which also binds strongly to DNA.3, 4 The high resolution mass spectrum confirmed the formation of [(η6-arene)Ru(XEn)(9-EtG)]+ (Supplementary Table 5). The interaction of complexes 1-4 with 9-MeA was also investigated, but no reaction was detected by 1H-NMR.
It is well established that N7 of guanine is the preferred nucleotide binding site for many transition metals ions. 2-8 Furthermore, strong and selective binding to N7 of 9-EtG, has been observed for [(η6-arene)Ru(en)Cl]+.3, 4 A pH* titration of […]

[1] = tested on: A2780 human ovarian cancer cells; experiment: In vitro growth inhibition assay (SRB), A2780; type: cell-based; conditions: A2780, 24 h drug exposure, no formate
Procedure: A2780 human ovarian carcinoma and MRC5 human fetal lung fibroblasts were obtained from the European Collection of Cell Cultures. Both cell lines were grown in Roswell Park Memorial Institute medium (RPMI-1640) supplemented with 10% of fetal calf serum, 1% of 2 mM glutamine and 1% penicillin/streptomycin. All cells were grown as adherent monolayers at 310 K in a 5% CO2-humidified atmosphere and passaged at ca. 70–80% confluency.
The antiproliferative activity of complexes 1–8 was determined in A2780 ovarian cancer cells and MRC5 fibroblasts. Briefly, 96-well plates were used to seed 5,000 cells per well. The plates were left to pre-incubate with drug-free medium at 310 K for 48 h before adding different concentrations of the compounds to be tested. A drug exposure period of 24 h was allowed. After this, supernatants were removed by suction and each well was washed with PBS. A further 72 h were allowed for the cells to recover in drug-free medium at 310 K. The sulforhodamine B (SRB) assay was used to determine cell viability. IC50 values, as the concentration that causes 50% cell death, were determined as duplicates of triplicates in two independent sets of experiments and their s.d. were calculated.

calf thymus DNA = experiment: Interaction with calf thymus DNA (ethanol precipitation, ICP-MS of Ru); type: binding
Procedure: Interaction with calf thymus DNA
Complex 2 was chosen as representative of the series. A stock solution of complex 2 (0.7 mM in 5 % acetonitrile/water) was prepared and aliquots of 66 μL were added to a solution of CT-DNA (final ratio 1:3 complex: base pairs-DNA) in water, 2 mM cacodylate buffer and 2 mM NaCl. The reaction mixture was incubated at 310 K, and aliquots of 300 μL were taken at different intervals during a period of 27 h. The DNA was then precipitated by addition of ethanol (700 μL, final concentration 70% v/v). Ru complexes which are strongly bound to CT-DNA will precipitate together with the DNA upon addition of ethanol, and, therefore the ruthenium concentration in the supernatant should decrease. However, no changes in the Ru concentration were detected by ICP-MS showing that the interaction between the complex 2 and DNA is weak (t = 0 h / 64.2 ± 0.7 µM, t = 24 h/ 65.1 ± 0 .3 µM free Ru). In contrast complex 8

[2] = tested on: A2780 ovarian cancer cells; experiment: Ruthenium accumulation in cancer cells (ICP-MS); type: cell-based, human
Procedure: Briefly, 1.5 × 10^6 cells per well were seeded on a six-well plate. […] After this time, cells were washed, treated with trypsin-EDTA, counted and cell pellets were collected. Each pellet was digested overnight in concentrated nitric acid (73%) at 353 K; the resulting solutions were diluted using double-distilled water to give a final concentration of 5% HNO3 and the amount of Ru taken up by the cells was determined by ICP–MS. […]
Supplementary Table 3: Antiproliferative activity of complexes 1-8 in A2780 ovarian cancer cells and their cellular accumulation (expressed as ng Ru per million cells).
The latter experiments were carried out using equipotent concentrations of the […]
experiments were performed as duplicates of triplicates in independent experiments and the error bars were calculated as the standard deviation from the mean. […]

[3] = Transfer hydrogenation of NAD+ to 1,4-NADH with formate, followed by 1H NMR; conditions: NAD+ 2 mol equiv, formate 25 mol equiv, 310 K, pH* 7.2
Procedure: Complexes 1–7 were dissolved in MeOH-d4/D2O (5:1 v/v, 1.4 mM, 4 ml). Solutions of sodium formate (35 mM, 4 ml) and NAD^+ in D2O (2.8 mM, 2 ml) were also prepared and incubated at 310 K. In a typical experiment, 200-μl aliquots of each solution were added to a 5-mm NMR tube and the pH* adjusted to 7.2±0.1 (total volume 0.635 ml, final concentrations: Ru complex 0.44 mM; NAD^+ 0.88 mM; formate 11.02 mM; molar ratio 1:2:25). ^1H NMR spectra were recorded at 310 K every 162 s until the completion of the reaction.
Molar ratios of NAD^+ and NADH were determined by integrating the peaks at 9.33 and 6.96 p.p.m. (NAD^+ and 1,4-NADH, respectively). The turnover number for the reaction was calculated as follows: […]
where In is the integral of the signal at n p.p.m. and [NAD^+]0 is the concentration of NAD^+ at the start of the reaction.

Compound: Cc1ccc(C(C)C)cc1.Cc1ccc(S(=O)(=O)[N-]CCN)cc1.[Cl-].[Ru+2] [Complex 2, [(p-cym)Ru(TsEn)Cl]]
- Binding constant for formation of 9-EtG adducts (9-ethylguanine): 104.9 ± 3.9 mM⁻¹
- IC50 [1]: 13.6 ± 0.6 µM
- free Ru in supernatant (calf thymus DNA; CT-DNA, 1:3 complex:base pairs, 310 K, t = 0 h): 64.2 ± 0.7 µM
- binding to calf thymus DNA (calf thymus DNA; ICP-MS of Ru, up to 27 h at 310 K, 1:3 complex:DNA base pairs, 2 mM cacodylate pH 7.4, 2 mM NaCl): weak and no binding
- Cell Ru ([2]; A2780, 1/3 x IC50, 24 h drug exposure, no recovery time): 0.15 ± 0.04 ng x 106 cells
- Cell accum. ([2]; A2780, 24 h, 1/3 x IC50): 0.15 ng Ru/10^6 cells
- dependence of cellular accumulation of ruthenium on amount of formate added ([2]; A2780, complex 2 4.5 μM): no significant dependence
- Cell Ru ([2]; A2780, complex 2, formate 0 mM): 0.15 ± 0.03 ng x 106 cells
- Cell Ru ([2]; A2780, complex 2, formate 0.5 mM): 0.145 ± 0.009 ng x 106 cells
- Cell Ru ([2]; A2780, complex 2, formate 1 mM): 0.129 ± 0.005 ng x 106 cells
- Cell Ru ([2]; A2780, complex 2, formate 2 mM): 0.13 ± 0.02 ng x 106 cells
- TOF D2O/MeOH-d4 ([3]; 23% MeOH-d4/77% D2O): 2.88 ± 0.06 h⁻¹
- TOF D2O ([3]; D2O): 1.58 ± 0.04 h⁻¹
